Test results published in patent US6734212B2, “Methods and compositions for treating or preventing bacterial infection” (Shanghai East Best Biopharmaceutical, priority 2001, dated 2004).
Like-named read-outs stand apart in the source and are kept apart here.

Columns and labels:
[1] = system: E. coli; assay: Effects of GMCHA derivatives on E. coli growth; format: cell-based; settings: for IC50: Escherichia coli; for E. coli IC91 / E. coli IC100: growth, Table 2
[2] = target: T1, E. coli Proteinase In (Escherichia coli, UniProt P27298); assay: Inhibition of purified E. coli proteinase In (fluorogenic substrate Boc-Val-Pro-Arg-NH-Mec); format: biochemical
T1 construct: We detected a single activity and had purified it to homogeneity; made in house; host or cells: endogenous enzyme purified from E. coli extracts (not recombinant)
Description: Since the GMCHA derivatives were originally identified as synthetic trypsin inhibitors in vitro, we investigated whether a trypsin-like protease could be detected in E. coli extracts using as fluorogenic substrate Boc-Val-Pro-Arg-NH-Mec. (Kato et al., Eur. J. Biochem., 210:1007-1014 (1992)). We detected a single activity and had purified it to homogeneity. […] The purified enzyme has a molecular mass of ˜66 kDa and an isoelectric point of 4.9. Based upon pH optimum, hydrolytic activity on various synthetic substrates, and effects of various known proteolytic inhibitors, this E. coli protease has very different specificity than mammalian trypsin or any of known bacterial enzymes. Most exciting is the finding that the sensitivity of the purified enzyme to various GMCHA derivatives paralleled exactly their inhibitory effects on E. coli (Table 1). […] (Kato et al., Biol.Pharm. Bull., 16:552-557 (1993)). […]. […] We named this enzyme proteinase In, and its gene was identical with prlC. The prlC gene encoded a 67 kDa protein with two active sites for proteinase In and oligopeptidase A. (Jiang et al., J. Biochem., 124:980-985 (1998)). […] (Irisawa et al., Biol. Pharm. Bull., 16:1211-1215 (1993)).

[3] = system: B. subtilis; assay: Effects of aromatic esters of GMCHA on growth of B. subtilis; format: cell-based; settings: for IC50: Bacillus subtilis
[4] = system: S. aureus; assay: Effects of aromatic esters of GMCHA on growth of S. aureus; format: cell-based; settings: for IC20: Staphylococcus aureus, read-out: S. aureus IC20; for S. aureus IC100: growth
[5] = system: S. epidermidis; assay: Effects of aromatic esters of GMCHA on growth of S. epidermidis; format: cell-based
[6] = system: H. pylori; assay: MIC against 9 strains of H. pylori; format: cell-based; settings: 9 ATCC strains of H. pylori
Procedure: MICs (μg/ml) of several substances against 9 strains (ATCC43504, ATCC43629, ATCC43526,ATCC43579,ATCC49503,ATCC51110,ATCC51652,ATCC51653, ATCC51932) of H. pylori were examined. NE-2001 had minimal inhibitory concentrations (MICs) ranging from 0.10 to 0.48 μg/ml.

[7] = system: synchronized E. coli cells; format: cell-based
[8] = system: H. pylori; assay: Bactericidal effect against H. pylori (time course, various concentrations and pH); format: cell-based; settings: concentration ≧1.25 μg/ml
Procedure: FIG. 2 illustrates the anti-H. pylori effects of the compound NE-2001. Bactericidal effect was examined at various concentration (0.15-2.50 μg/ml) for 168 hours. […] No visible organism was detected in 3 hr at a concentration of ≧1.25 μg/ml.

[9] = system: H. pylori ATCC43504; assay: Appearance frequency of natural resistant mutation; format: cell-based
Description: FIG. 3. Illustrates the anti-H. pylori effects of the compound NE-2001 at various pH values. The appearance frequency of natural resistant mutations against NE-2001 was examined (Table 4).

[10] = Single dose toxicity in mice; format: in vivo
[11] = read-out: E. coli Proteinase In IC50

T1 sequence (P27298 whole entry): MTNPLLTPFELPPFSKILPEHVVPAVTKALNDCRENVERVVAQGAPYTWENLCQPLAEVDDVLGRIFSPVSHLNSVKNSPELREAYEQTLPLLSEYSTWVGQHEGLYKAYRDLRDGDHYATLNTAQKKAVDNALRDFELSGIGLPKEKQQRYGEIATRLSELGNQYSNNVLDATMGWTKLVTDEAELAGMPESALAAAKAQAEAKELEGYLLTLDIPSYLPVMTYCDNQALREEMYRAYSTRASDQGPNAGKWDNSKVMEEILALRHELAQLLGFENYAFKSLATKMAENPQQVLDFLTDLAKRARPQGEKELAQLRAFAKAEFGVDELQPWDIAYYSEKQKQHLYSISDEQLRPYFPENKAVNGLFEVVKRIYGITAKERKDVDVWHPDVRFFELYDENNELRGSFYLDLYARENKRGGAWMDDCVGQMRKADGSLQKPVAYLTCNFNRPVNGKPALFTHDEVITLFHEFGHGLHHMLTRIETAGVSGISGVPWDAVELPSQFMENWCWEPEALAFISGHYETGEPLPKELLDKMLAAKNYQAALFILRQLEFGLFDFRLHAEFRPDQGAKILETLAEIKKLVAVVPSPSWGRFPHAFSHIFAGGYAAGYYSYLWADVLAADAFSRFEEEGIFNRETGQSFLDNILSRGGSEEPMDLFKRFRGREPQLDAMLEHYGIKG

Compound | IC50 [1] | IC50 [2] | E. coli IC91 [1] | E. coli IC100 [1] | B. subtilis IC100 [3] | IC50 [3] | IC20 [4] | S. aureus IC100 [4] | S. epidermidis IC91 [5] | S. epidermidis IC100 [5] | MIC Range [6] | also measured
N=C(N)NCC1CCC(C(=O)Oc2c(Cl)cc(Cl)cc2Cl)CC1 (centres unmarked) [PH06] | 44 µM | 35 µM |  |  |  |  |  |  |  |  |  | 
N=C(N)NCC1CCC(C(=O)Oc2ccccc2)CC1 (centres unmarked) [PH01] | > 200 µM |  | >200 | > 200 µM | > 200 µM | > 200 µM | 151 µM | > 200 µM | 128 | > 200 µM |  | IC50 [2, 11]: > 200 µM
Cc1ncc([N+](=O)[O-])n1CCO [Metronidazole] |  |  |  |  |  |  |  |  |  |  | 0.65 to 2.45 µg/mL | 
CC(C)(C)c1ccc(OC(=O)C2CCC(CNC(=N)N)CC2)cc1 (centres unmarked) [PH04] | 45 µM | 38 µM | 45 | 90 µM | 50 µM | 26 µM | 3.4 µM | 15 µM | 2.9 | 10 µM |  | duration of R1 period [7]: 35 min; time at which DNA synthetic activity doubled [7]: 65 min; time of initiation of DNA synthesis [7]: 30 min
CCc1ccc(OC(=O)C2CCC(CNC(=N)N)CC2)cc1 (centres unmarked) [PH03] | 167 µM |  | 167 | > 200 µM | > 200 µM | 129 µM | 15 µM | 50 µM | 14 | 50 µM |  | IC50 [2, 11]: > 200 µM
N=C(N)NCC1CCC(C(=O)Oc2ccc(Cl)cc2Cl)CC1 (centres unmarked) [PH05] | 92 µM | 62 µM |  |  |  |  |  |  |  |  |  | 
Cc1ccc(COC(=O)c2ccc(-c3ccc(OC(=O)c4ccc(CNC(=N)N)cc4)cc3)cc2)cc1 [NE-2001, 4-(4-methylbenzyl)-4′-[guanidinomethylbenzoyloxy] biphenyl-4-carboxylate] |  |  |  |  |  |  |  |  |  |  | 0.10 to 0.48 µg/mL | time at which no visible organism was detected [8]: 3 h; Frequency of natural resistant mutation ([9]; selected concentration of NE-2001 0.30 μg/ml): <3.4 × 10^−8; Frequency of natural resistant mutation ([9]; selected concentration of NE-2001 0.60 μg/ml): <3.4 × 10^−8; Frequency of natural resistant mutation ([9]; selected concentration of NE-2001 1.20 μg/ml): <3.4 × 10^−8; LD50 ([10]; mouse, in vivo, 2000 mg/kg, oral, single dose, male mice, 6 weeks): > 2000 mg/kg; animal deaths ([10]; mouse, in vivo, po, 2000 mg/kg): no animal deaths occurred; body weight ([10]; mouse, in vivo, po, 2000 mg/kg): all animals gained weight; general toxicity ([10]; oral 2000 mg/kg, male mice): observed in neither cases
N=C(N)NCC1CCC(C(=O)Oc2ccc(-c3ccccc3)cc2)CC1 (centres unmarked) [BP01] | 26 µM | 17 µM | 26 | 40 µM | 10 µM | 4 µM | 0.6 µM | 2 µM | 0.4 | 1.5 µM |  | 
CC1(C)S[C@@H]2[C@H](NC(=O)[C@H](N)c3ccc(O)cc3)C(=O)N2[C@H]1C(=O)O [Amoxicillin] |  |  |  |  |  |  |  |  |  |  | 0.01 to 0.08 µg/mL | 
CC[C@H]1OC(=O)[C@H](C)[C@@H](O[C@H]2C[C@@](C)(OC)[C@@H](O)[C@H](C)O2)[C@H](C)[C@@H](O[C@@H]2O[C@H](C)C[C@H](N(C)C)[C@H]2O)[C@](C)(OC)C[C@@H](C)C(=O)[C@H](C)[C@@H](O)[C@]1(C)O [Clarithromycin] |  |  |  |  |  |  |  |  |  |  | 0.01 to 0.90 µg/mL | 
Cc1ccc(OC(=O)C2CCC(CNC(=N)N)CC2)cc1 (centres unmarked) [PH02] | > 200 µM |  | >200 | > 200 µM | > 200 µM | > 200 µM | 47 µM | 120 µM | 48 | 120 µM |  | IC50 [2, 11]: > 200 µM
N=C(N)NCC1CCC(C(=O)Oc2ccccc2-c2ccccc2)CC1 (centres unmarked) [BP02] | 74 µM | 83 µM |  |  |  |  |  |  |  |  |  | 
